Data reported in EP2616456B1, “NUCLEAR EXPORT INHIBITORS” (Universitätsmedizin der Johannes Gutenberg-Universität Mainz, priority 2010, dated 2012).

Assays:
[1] = test system: A431; experiment: Cell viability (CellTiter-Glo) and cell death, A431; type: cell-based; conditions: for cell death induced by treatment: A431 (epidermoid carcinoma), 25µM; for viability compared to the control: A431, 100µM, 72h, CellTiter-Glo
Method: (§1) To test the anti-cancer activity of the compounds, several cancer cell lines, currently used as models for different epithelial cancers and leukemias, were treated with the indicated inhibitors. […] Every 24h, the cell culture medium was replaced by fresh compound-containing medium. 72h post treatment, cell were analyzed by adding 100µl CellTiter-Glo® assay reagent (Promega). Luminescence was measured with a LuminoskanAscent device (ThermoScientific). Cells treated with a corresponding amount of DMSO only were use as a control. The luminescence (equals cell viability) of said control was set to 100%.

[2] = test system: HeLa cells; experiment: Apoptosis by immunoblot detection of cleaved Caspase 3 and PARP cleavage in HeLa lysates; type: cell-based; conditions: 25µM, lysates 72h post treatment
From the text: Lysates of cells treated DMSO only were used as a control.

[3] = molecular target: human CRM1 (Crm1-HA) (Homo sapiens, UniProt O14980); experiment: In vitro pull-down of Crm1-HA with GST-SurvivinNES-GFP beads; type: binding; conditions: preincubation 1mM, 30min at 4°C
Method: The binding of LMB and of compounds C3 and C5 to CRM1 was examined by in vitro pull-down assays as described by Stauber et al., 2006. Briefly, in vitro coupled transcription/translation was performed using the TNT reticulocyte lysate system (Promega, Madison, WI, USA) supplemented with methionine (Promega, Madison, WI, USA) and plasmid pCrm1_HA (1µg), encoding a hemagglutinin epitope-tagged version of human CRM1 (Crm1-HA), as the template. Equal amounts of the Crm1-HA TNT reaction were preincubated with either DMSO (negative control; 0.1%), LMB (400nM, final concentration), C3 (1 mM; final concentration) or C5 (1mM; final concentration) in binding-buffer containing 5mM MgCl2 (AppliChem, Darmstadt, Germany), 2mM GTP (PEQLAB, Erlangen, Germany), 50mM Hepes pH 7.9 (AppliChem, Darmstadt, Germany), 200mM KCI (AppliChem, Darmstadt, Germany), 0.4% Tween 20 (AppliChem, Darmstadt, Germany), supplemented with complete protease inhibitor cocktail (Roche, Mannheim, Germany) for 30min at 4°C. Subsequently, GST-Sepharose beads loaded with 25µg recombinant GST-SurvivinNES-GFP and 5µg GST-RanQ96L were added to each drug-treated TNT reaction. Recombinant GST-SurvivinNES-GFP and GST-RanQ96L were purified from bacteria as described by Stauber et al., 2006. Pull-down was performed for 4h at 4°C in a rotating wheel. Samples were then centrifuged (3500rpm, 1min, 4°C) to recover the GST-SurvivinNES-GFP beads with bound Crm1-HA. Beads were washed three times with binding-buffer (500µl each washing step, 3500rpm, 1min, 4°C). Finally, bound proteins were eluted by adding 25µl 2xSDS-sample buffer (250mM Tris-HCl pH 6.8; 2% w/v SDS, 20% glycerol, 2% β-mercaptoethanol, 0.002% w/v bromophenol blue) and incubating at 95°C for 2min. Samples were separated by SDS-gelelectrophoresis and analyzed by immunoblot analysis as described by Stauber et al., 2006. Crm1-HA was detected with HA specific antibodies (MMS-101R, Covance, New Jersey, USA). GFP served as the loading control and was visualized with GFP specific antibodies (sc-8334, Santa Cruz Biotechnology, Heidelberg, Germany).

[4] = test system: RKO; experiment: Cell viability (CellTiter-Glo) and cell death, RKO; type: cell-based; conditions: for cell death induced by treatment: RKO (colon cancer), 25µM; for viability compared to the control: RKO, 100µM, 72h, CellTiter-Glo
Method: as §1

[5] = test system: Survivin; experiment: Nuclear export of Survivin-GFP fusion stably expressed in A431 cells; type: cell-based; conditions: A431, stable expression, 25µM
From the text: Nuclear export of Survivin is crucial for its tumor promoting cytoprotective activity (Engels et al., 2007; Knauer et al., 2007a; Knauer et al., 2007b).

Sequence of human CRM1 (Crm1-HA) (O14980 whole entry): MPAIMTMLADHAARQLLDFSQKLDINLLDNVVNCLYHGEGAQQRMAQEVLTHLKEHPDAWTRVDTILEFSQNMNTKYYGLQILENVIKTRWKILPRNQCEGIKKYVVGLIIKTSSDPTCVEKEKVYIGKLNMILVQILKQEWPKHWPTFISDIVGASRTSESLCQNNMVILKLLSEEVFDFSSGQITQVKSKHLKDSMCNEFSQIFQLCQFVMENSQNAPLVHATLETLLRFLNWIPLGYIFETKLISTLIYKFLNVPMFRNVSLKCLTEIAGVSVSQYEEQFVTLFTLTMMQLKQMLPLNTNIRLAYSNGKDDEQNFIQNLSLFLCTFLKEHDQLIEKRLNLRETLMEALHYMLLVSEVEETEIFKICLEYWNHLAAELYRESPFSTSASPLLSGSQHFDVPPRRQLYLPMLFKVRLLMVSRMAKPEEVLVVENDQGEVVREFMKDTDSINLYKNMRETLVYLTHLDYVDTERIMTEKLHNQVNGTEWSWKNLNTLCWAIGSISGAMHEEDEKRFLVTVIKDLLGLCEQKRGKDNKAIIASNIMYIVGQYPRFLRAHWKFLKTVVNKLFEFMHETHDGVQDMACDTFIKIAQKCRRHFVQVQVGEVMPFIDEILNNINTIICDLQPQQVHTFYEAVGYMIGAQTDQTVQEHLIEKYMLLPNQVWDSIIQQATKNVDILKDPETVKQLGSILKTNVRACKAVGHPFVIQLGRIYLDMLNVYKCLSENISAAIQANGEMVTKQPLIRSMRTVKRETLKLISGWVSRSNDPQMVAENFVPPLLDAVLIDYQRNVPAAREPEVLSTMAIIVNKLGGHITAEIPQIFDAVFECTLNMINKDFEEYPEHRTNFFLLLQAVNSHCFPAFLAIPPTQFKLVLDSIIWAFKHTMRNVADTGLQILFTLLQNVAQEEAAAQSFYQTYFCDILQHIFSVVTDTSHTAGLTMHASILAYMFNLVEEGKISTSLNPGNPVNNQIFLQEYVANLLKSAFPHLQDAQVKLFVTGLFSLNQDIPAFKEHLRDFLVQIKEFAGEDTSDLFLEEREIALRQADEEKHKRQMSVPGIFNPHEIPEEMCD

Row | SMILES | cell death induced by treatment [1] | viability compared to the control [1] | drug-induced apoptosis (cleaved Caspase 3 and PARP cleavage) [2] | interaction of Crm1-HA with the export substrate GST-SurvivinNES-GFP [3] | cell death induced by treatment [4] | viability compared to the control [4] | Localization of Survivin-GFP fusion (nuclear export of Survivin) [5]
1 | NC(=O)c1c(NC(NC(=O)c2ccccc2F)(C(F)(F)F)C(F)(F)F)sc2c1CCCC2 [Compound C3, 2-[[1,1,1,3,3,3-hexafluoro-2-[(2-fluorobenzoyl)amino]propan-2-yl]amino]-4,5,6,7-tetrahydro-1-benzothiophene-3-carboxamide] | cell death | significantly reduced viability | drug-induced apoptosis was shown | did not affected the CRM1 binding | cell death | significantly reduced viability | 
2 | O=C(NC1CS(=O)(=O)CC1Cl)c1cccc(C(F)(F)F)c1 (stereo not shown) [Compound C5, N-(4-chloro-1,1-dioxothiolan-3-yl)-3-(trifluoromethyl)benzamide] | cell death | significantly reduced viability | drug-induced apoptosis was shown | did not affected the CRM1 binding | cell death | significantly reduced viability | nuclear accumulation
